Experimental findings from patent publication US8741836B2, “Polypeptides” (Novo Nordisk A/S, priority 2011, dated 2014) are described below.

Starred links: 1 amine or outer side, 2 acyl side, 3 side chain; linkers in the order of their positions; H or OH if unused. Positions of bridges follow the written chain, without caps; N, C: chain ends. Residues, ends and D or L forms follow the SMILES beside them. *: point of attachment. C20 diacid = O=C(O)CCCCCCCCCCCCCCCCCCC(=O)*; γGlu = O=C(O)[C@H](CCC(=O)[*:2])N[*:1]

Data set [1] in a line: Assay (III) ThT fibrillation assay for physical stability. Format: physicochemical. Conditions: for ThT pH 4.0 lag time: pH 4.0, ThT fibrillation assay. In short, it runs like this: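 Freshly prepared, pH-adjusted formulations with 1 μM ThT incubated at 37 °C under 960 rpm orbital shaking (1 mm), fluorescence (ex 444, em 485 nm) read every 20 min. […] Peptide content before and after measured by reverse-phase HPLC against pramlintide standard.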

A further data set concerns ad libitum fed rat. Description: Assay (I) efficacy testing on appetite (food intake) using an ad libitum fed rat model. Format: in vivo, Sprague Dawley (SD) rats. Conditions: 3 nmol/kg. The essentials: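 Ad libitum fed Sprague Dawley rats, 200-250 g, singly housed on reversed light cycle, got one ip, po or sc dose of 0.01-3 mg/kg just before lights off; groups of 5-8 with vehicle control. Food intake recorded hourly for 7 h, then at 24 h and sometimes 48 h; Grubbs outliers excluded.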

For the molecule `CC[C@H](C)[C@H](NC(=O)[C@@H]1CCCN1C(=O)CNC(=O)[C@H](Cc1ccccc1)NC(=O)[C@H](CC(N)=O)NC(=O)[C@H](CC(N)=O)NC(=O)[C@H](CO)NC(=O)[C@H](CO)NC(=O)[C@H](Cc1c[nH]cn1)NC(=O)[C@H](Cc1c[nH]cn1)NC(=O)[C@H](CC(C)C)NC(=O)[C@H](Cc1ccccc1)NC(=O)[C@H](CCC(=O)O)NC(=O)[C@H](C)NC(=O)[C@H](CC(C)C)NC(=O)[C@H](CCCNC(=N)N)NC(=O)[C@H](CCC(N)=O)NC(=O)[C@@H](NC(=O)[C@H](C)NC(=O)[C@@H]1CSSC[C@H](NC(=O)[C@H](CCCCN)NC(=O)CC[C@H](NC(=O)CCCCCCCCCCCCCCCCCCC(=O)O)C(=O)O)C(=O)N[C@@H](CC(N)=O)C(=O)N[C@@H]([C@@H](C)O)C(=O)N[C@@H](C)C(=O)N[C@@H]([C@@H](C)O)C(=O)N1)[C@@H](C)O)C(=O)N[C@@H](CC(C)C)C(=O)N1CCC[C@H]1C(=O)N1CCC[C@H]1C(=O)N[C@H](C(=O)N[C@@H](CC(N)=O)C(=O)N[C@H](C(=O)NCC(=O)N[C@@H](CO)C(=O)N[C@@H](CC(N)=O)C(=O)N[C@H](C(=O)N1CCC[C@H]1C(N)=O)[C@@H](C)O)C(C)C)[C@@H](C)O` [Example 52, N-alpha-[(S)-4-Carboxy-4-(19-carboxynonadecanoylamino)butyryl]-[Glu14,His17,Pro37]-pramlintide] ({C20 diacid-γGlu}-KCNTATCATQRLAEFLHHSSNNFGPILPPTNVGSNTP-NH2; disulfide 2-7), the “ThT pH 4.0 lag time” value in data set [1] is listed as greater than 45 h. In addition, in the data set on ad libitum fed rat, the “Food intake reduction 0-24 h 3 nmol/kg (%)” value is 62% and the “Food intake reduction 24-48 h 3 nmol/kg (%)” value amounted to 74%.

For `CC[C@H](C)[C@H](NC(=O)[C@@H]1CCCN1C(=O)CNC(=O)[C@H](Cc1ccccc1)NC(=O)[C@H](CC(N)=O)NC(=O)[C@H](CC(N)=O)NC(=O)[C@H](CO)NC(=O)[C@H](CO)NC(=O)[C@H](Cc1c[nH]cn1)NC(=O)[C@H](Cc1c[nH]cn1)NC(=O)[C@H](CC(C)C)NC(=O)[C@H](Cc1ccccc1)NC(=O)[C@H](CCC(=O)O)NC(=O)[C@H](C)NC(=O)[C@H](CC(C)C)NC(=O)[C@H](CCCNC(=N)N)NC(=O)[C@H](CCC(N)=O)NC(=O)[C@@H](NC(=O)[C@H](C)NC(=O)[C@@H]1CSSC[C@H](NC(=O)[C@H](CCCNC(=N)N)NC(=O)CNC(=O)CC[C@H](NC(=O)CCCCCCCCCCCCCCCCCCC(=O)O)C(=O)O)C(=O)N[C@@H](CC(N)=O)C(=O)N[C@@H]([C@@H](C)O)C(=O)N[C@@H](C)C(=O)N[C@@H]([C@@H](C)O)C(=O)N1)[C@@H](C)O)C(=O)N[C@@H](CC(C)C)C(=O)N1CCC[C@H]1C(=O)N1CCC[C@H]1C(=O)N[C@H](C(=O)N[C@@H](CC(N)=O)C(=O)N[C@H](C(=O)NCC(=O)N[C@@H](CO)C(=O)N[C@@H](CC(N)=O)C(=O)N[C@H](C(=O)N1CCC[C@H]1C(N)=O)[C@@H](C)O)C(C)C)[C@@H](C)O` [Example 101, N-alpha-[(S)-4-Carboxy-4-(19-carboxynonadecanoylamino)butyryl]-Gly-[Arg1,Glu14,His17,Pro37]-pramlintide] ({C20 diacid-γGlu}-GRCNTATCATQRLAEFLHHSSNNFGPILPPTNVGSNTP-NH2; disulfide 3-8), in data set [1], the “ThT pH 4.0 lag time (physical stability in fibrillogenesis assay)” value was greater than 45 h and the “ThT pH 4.0 lag time” value is greater than 45 h. In the data set with ad libitum fed rat, the “Food intake reduction 0-24 h 3 nmol/kg (%)” value came out at 70% and the “Food intake reduction 24-48 h 3 nmol/kg (%)” value came out at 90%.

For `CC[C@H](C)[C@H](NC(=O)[C@@H]1CCCN1C(=O)CNC(=O)[C@H](Cc1ccccc1)NC(=O)[C@H](CC(N)=O)NC(=O)[C@H](CC(N)=O)NC(=O)[C@H](CO)NC(=O)[C@H](CO)NC(=O)[C@H](Cc1c[nH]cn1)NC(=O)[C@H](CCCNC(=N)N)NC(=O)[C@H](CC(C)C)NC(=O)[C@H](Cc1ccccc1)NC(=O)[C@H](CCC(=O)O)NC(=O)[C@H](C)NC(=O)[C@H](CC(C)C)NC(=O)[C@H](CCCNC(=N)N)NC(=O)[C@H](CCC(N)=O)NC(=O)[C@@H](NC(=O)[C@H](C)NC(=O)[C@@H]1CSSC[C@H](NC(=O)[C@H](Cc2c[nH]cn2)NC(=O)CNC(=O)CC[C@H](NC(=O)CCCCCCCCCCCCCCCCCCC(=O)O)C(=O)O)C(=O)N[C@@H](CC(N)=O)C(=O)N[C@@H]([C@@H](C)O)C(=O)N[C@@H](C)C(=O)N[C@@H]([C@@H](C)O)C(=O)N1)[C@@H](C)O)C(=O)N[C@@H](CC(C)C)C(=O)N1CCC[C@H]1C(=O)N1CCC[C@H]1C(=O)N[C@H](C(=O)N[C@@H](CC(N)=O)C(=O)N[C@H](C(=O)NCC(=O)N[C@@H](CO)C(=O)N[C@@H](CC(N)=O)C(=O)N[C@H](C(=O)N1CCC[C@H]1C(N)=O)[C@@H](C)O)C(C)C)[C@@H](C)O` [Example 89, N-alpha-[(S)-4-Carboxy-4-(19-carboxynonadecanoylamino)butyryl]-Gly-[His1,Glu14,Arg17,Pro37]-pramlintide] ({C20 diacid-γGlu}-GHCNTATCATQRLAEFLRHSSNNFGPILPPTNVGSNTP-NH2; disulfide 3-8 (inferred)), in data set [1], the “ThT pH 4.0 lag time (physical stability in fibrillogenesis assay)” value is on record as greater than 45 h and the “ThT pH 4.0 lag time” value is listed as greater than 45 h. In the data set on ad libitum fed rat, the “Food intake reduction 0-24 h 3 nmol/kg (%)” value is given as 42% and the “Food intake reduction 24-48 h 3 nmol/kg (%)” value is on record as 23%.

With `CC[C@H](C)[C@H](NC(=O)[C@@H]1CCCN1C(=O)CNC(=O)[C@H](Cc1ccccc1)NC(=O)[C@H](CC(N)=O)NC(=O)[C@H](CCC(N)=O)NC(=O)[C@H](CO)NC(=O)[C@H](CO)NC(=O)[C@H](Cc1c[nH]cn1)NC(=O)[C@H](Cc1c[nH]cn1)NC(=O)[C@H](CC(C)C)NC(=O)[C@H](Cc1ccccc1)NC(=O)[C@H](CCC(=O)O)NC(=O)[C@H](C)NC(=O)[C@H](CC(C)C)NC(=O)[C@H](CCCNC(=N)N)NC(=O)[C@H](CCC(N)=O)NC(=O)[C@@H](NC(=O)[C@H](C)NC(=O)[C@@H]1CSSC[C@H](NC(=O)[C@H](CCCCN)NC(=O)CC[C@H](NC(=O)CCCCCCCCCCCCCCCCCCC(=O)O)C(=O)O)C(=O)N[C@@H](CC(N)=O)C(=O)N[C@@H]([C@@H](C)O)C(=O)N[C@@H](C)C(=O)N[C@@H]([C@@H](C)O)C(=O)N1)[C@@H](C)O)C(=O)N[C@@H](CC(C)C)C(=O)N1CCC[C@H]1C(=O)N1CCC[C@H]1C(=O)N[C@H](C(=O)N[C@@H](CC(N)=O)C(=O)N[C@H](C(=O)NCC(=O)N[C@@H](CO)C(=O)N[C@@H](Cc1c[nH]cn1)C(=O)N[C@H](C(=O)N[C@@H](Cc1ccc(O)cc1)C(N)=O)[C@@H](C)O)C(C)C)[C@@H](C)O` [Example 117, N-alpha-[(S)-4-Carboxy-4-(19-carboxynonadecanoylamino)butyryl]-[Glu14,His17,Gln21,His35)-pramlintide] ({C20 diacid-γGlu}-KCNTATCATQRLAEFLHHSSQNFGPILPPTNVGSHTY-NH2; disulfide 2-7), in data set [1], the “ThT pH 4.0 lag time (physical stability in fibrillogenesis assay)” value was greater than 45 h and the “ThT pH 4.0 lag time” value is reported as greater than 45 h. For the same molecule, in the data set on ad libitum fed rat, the “Food intake reduction 0-24 h 3 nmol/kg (%)” value is recorded as 50% and the “Food intake reduction 24-48 h 3 nmol/kg (%)” value was found to be 35%.

On to `CC[C@H](C)[C@H](NC(=O)[C@@H]1CCCN1C(=O)CNC(=O)[C@H](Cc1ccccc1)NC(=O)[C@H](CO)NC(=O)[C@H](CO)NC(=O)[C@H](CO)NC(=O)[C@H](CO)NC(=O)[C@H](CCCNC(=N)N)NC(=O)[C@H](Cc1c[nH]cn1)NC(=O)[C@H](CC(C)C)NC(=O)[C@H](Cc1ccccc1)NC(=O)[C@H](CCC(=O)O)NC(=O)[C@H](C)NC(=O)[C@H](CC(C)C)NC(=O)[C@H](CCCNC(=N)N)NC(=O)[C@H](CCC(N)=O)NC(=O)[C@@H](NC(=O)[C@H](C)NC(=O)[C@@H]1CSSC[C@H](NC(=O)[C@H](Cc2c[nH]cn2)NC(=O)CC[C@H](NC(=O)CCCCCCCCCCCCCCCCCCC(=O)O)C(=O)O)C(=O)N[C@@H](CC(N)=O)C(=O)N[C@@H]([C@@H](C)O)C(=O)N[C@@H](C)C(=O)N[C@@H]([C@@H](C)O)C(=O)N1)[C@@H](C)O)C(=O)N[C@@H](CC(C)C)C(=O)N1CCC[C@H]1C(=O)N1CCC[C@H]1C(=O)N[C@H](C(=O)N[C@@H](CC(=O)O)C(=O)N[C@H](C(=O)NCC(=O)N[C@@H](CO)C(=O)N[C@@H](CC(=O)O)C(=O)N[C@H](C(=O)N[C@@H](Cc1ccc(O)cc1)C(N)=O)[C@@H](C)O)C(C)C)[C@@H](C)O` [Example 9, N-alpha-[(S)-4-Carboxy-4-(19-carboxynonadecanoylamino)butyryl]-[His1,Glu14,His17,Arg18,Ser21,Ser22,Asp31,Asp35]-pramlintide] ({C20 diacid-γGlu}-HCNTATCATQRLAEFLHRSSSSFGPILPPTDVGSDTY-NH2; disulfide 2-7), for which, in data set [1], the “ThT pH 4.0 lag time” value is recorded as greater than 45 h. In addition, in the data set with ad libitum fed rat, the “Food intake reduction 0-24 h 3 nmol/kg (%)” value is given as 39% and the “Food intake reduction 24-48 h 3 nmol/kg (%)” value is 32%.

In the case of `CC[C@H](C)[C@H](NC(=O)[C@@H]1CCCN1C(=O)CNC(=O)[C@H](Cc1ccccc1)NC(=O)[C@H](CC(N)=O)NC(=O)[C@H](CC(N)=O)NC(=O)[C@H](CO)NC(=O)[C@H](CO)NC(=O)[C@H](Cc1c[nH]cn1)NC(=O)[C@H](Cc1c[nH]cn1)NC(=O)[C@H](CC(C)C)NC(=O)[C@H](Cc1ccccc1)NC(=O)[C@H](CCC(=O)O)NC(=O)[C@H](C)NC(=O)[C@H](CC(C)C)NC(=O)[C@H](CCCNC(=N)N)NC(=O)[C@H](CCC(N)=O)NC(=O)[C@@H](NC(=O)[C@H](C)NC(=O)[C@@H]1CSSC[C@H](NC(=O)[C@H](Cc2c[nH]cn2)NC(=O)[C@H](Cc2c[nH]cn2)NC(=O)CC[C@H](NC(=O)CCCCCCCCCCCCCCCCCCC(=O)O)C(=O)O)C(=O)N[C@@H](CC(N)=O)C(=O)N[C@@H]([C@@H](C)O)C(=O)N[C@@H](C)C(=O)N[C@@H]([C@@H](C)O)C(=O)N1)[C@@H](C)O)C(=O)N[C@@H](CC(C)C)C(=O)N1CCC[C@H]1C(=O)N1CCC[C@H]1C(=O)N[C@H](C(=O)N[C@@H](CC(N)=O)C(=O)N[C@H](C(=O)NCC(=O)N[C@@H](CO)C(=O)N[C@@H](CC(N)=O)C(=O)N[C@H](C(=O)N[C@@H](Cc1ccc(O)cc1)C(N)=O)[C@@H](C)O)C(C)C)[C@@H](C)O` [Example 17, N-alpha-[(S)-4-Carboxy-4-(19-carboxynonadecanoylamino)butyryl]-His-[His1,Glu14,His17]-pramlintide] ({C20 diacid-γGlu}-HHCNTATCATQRLAEFLHHSSNNFGPILPPTNVGSNTY-NH2; disulfide 3-8), in the data set with ad libitum fed rat, the “Food intake reduction 0-24 h 3 nmol/kg (%)” value was determined as 40% and the “Food intake reduction 24-48 h 3 nmol/kg (%)” value was determined as 22%.
